The values that follow are results of earlier work, collected in US8221792B2 (Farnam Companies, Inc., priority 2005, dated 2012).

The conditions of series [1]: in vivo.
For series [2] the following is noted: in dogs.
For series [3] the following is noted: in human.

Structures can show the parent of a compound that is named as a salt. Where two headings read alike, the source gives them in different places.

Take `NCC1(CC(=O)O)CCCCC1` [Gabapentin]: in series [1], the elimination half-life was 5 to 7 h.

As for `COc1cccc([C@@]2(O)CCCC[C@@H]2CN(C)C)c1` (racemic) [tramadol, rac-(1R,2R)-2-(dimethylaminomethyl)-1-(3-methoxyphenyl)-cyclohexanol], the half-life in series [2] is 0.8 to 1.7 h; in series [3], 5.6 to 7.0 h.

For `COc1cccc(C2(O)CCCCC2CN(C)C)c1` (centres unmarked) [Tramadol HCl], the solubility in water result is given as “freely soluble”. The solubility in water result (listed as tramadol hydrochloric acid salt) is “highly water soluble”.

Broadly, the half-life is the time in which the quantity being followed falls by half.
